In ChEMBL document CHEMBL1201861, “Genomics of Drug Sensitity in Cancer screening data, Wellcome Trust Sanger Institute”:

Legend:
NCI-H2052 = assay: cells; format: functional, cell-based; details: Homo sapiens;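 note: growth inhibition of NCI-H2052 cells, read out with a cell viability assay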
Description: SANGER: Inhibition of human NCI-H2052 cell growth in a cell viability assay.

EHEB = assay: cells; format: functional, cell-based; details: Homo sapiens;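 note: growth inhibition of human EHEB cells, read out with a cell viability assay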
Description: SANGER: Inhibition of human EHEB cell growth in a cell viability assay.

HCC1395 = assay: cells; format: functional, cell-based; details: Homo sapiens;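 note: growth inhibition of HCC1395 cells, read out by a cell viability assay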
Description: SANGER: Inhibition of human HCC1395 cell growth in a cell viability assay.

WSU-NHL = assay: cells; format: functional, cell-based, Homo sapiens; details: Homo sapiens, WSU-NHL;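 note: growth inhibition of human WSU-NHL cells, read out with a cell viability assay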
Description: SANGER: Inhibition of human WSU-NHL cell growth in a cell viability assay.

MKN-1 = assay: cells; format: functional, cell-based; details: Homo sapiens;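 note: growth inhibition of human MKN1 cells, read out by a cell viability measurement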
Description: SANGER: Inhibition of human MKN1 cell growth in a cell viability assay.

IGROV-1 = assay: cells; format: functional, cell-based; details: Homo sapiens;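 note: reduction of IGROV-1 cell growth, read out with a viability assay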
Description: SANGER: Inhibition of human IGROV-1 cell growth in a cell viability assay.

NY = assay: cells; format: functional, cell-based; details: Homo sapiens
Description: SANGER: Inhibition of human NY cell growth in a cell viability assay.

MDA-MB-175-VII = assay: cells; format: functional, cell-based; details: Homo sapiens
IMR-5 = assay: cells; format: functional, cell-based, Homo sapiens; details: Homo sapiens, IMR-5; read-out: IC50;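 note: growth inhibition of human IMR-5 cells, read out with a cell viability assay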
Description: SANGER: Inhibition of human IMR-5 cell growth in a cell viability assay.

U2OS = assay: cells; format: functional, cell-based, U-2-OS; details: Homo sapiens;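 note: growth inhibition of human U-2-OS cells, determined with a cell viability assay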
Description: SANGER: Inhibition of human U-2-OS cell growth in a cell viability assay.

ASPC1 = assay: cells; format: functional, cell-based; details: Homo sapiens;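 note: growth inhibition of AsPC-1 cells, read out with a cell viability assay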
Description: SANGER: Inhibition of human AsPC-1 cell growth in a cell viability assay.

BFTC-909 = assay: cells; format: functional, cell-based; details: Homo sapiens
Description: SANGER: Inhibition of human BFTC-909 cell growth in a cell viability assay.

NCI-H1651 = assay: cells; format: functional, cell-based; details: Homo sapiens;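 note: Read-out is a cell viability assay, with IC50 expressing inhibition of NCI-H1651 cell growth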
Description: SANGER: Inhibition of human NCI-H1651 cell growth in a cell viability assay.

NCI-H650 = assay: cells; format: functional, cell-based; details: Homo sapiens;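 note: growth inhibition of NCI-H650 cells, read out by a viability assay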
Description: SANGER: Inhibition of human NCI-H650 cell growth in a cell viability assay.

PANC-03-27 = assay: cells; format: functional, cell-based; details: Homo sapiens
Description: SANGER: Inhibition of human PANC-03-27 cell growth in a cell viability assay.

RPMI-6666 = assay: cells; format: functional, cell-based, Homo sapiens; details: Homo sapiens, RPMI-6666
Description: SANGER: Inhibition of human RPMI-6666 cell growth in a cell viability assay.

DMS-153 = assay: cells; format: functional, cell-based, Homo sapiens; details: Homo sapiens, DMS-153
Description: SANGER: Inhibition of human DMS-153 cell growth in a cell viability assay.

CP50-MEL-B = assay: cells; format: functional, cell-based; details: Homo sapiens;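 note: growth inhibition of the human cell line, measured with a cell viability read-out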
Description: SANGER: Inhibition of human CP50-MEL-B cell growth in a cell viability assay.

SW1088 = assay: cells; format: functional, cell-based; details: Homo sapiens;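 note: growth inhibition of human SW1088 cells, read out by a cell viability assay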
Description: SANGER: Inhibition of human SW1088 cell growth in a cell viability assay.

THP-1 = assay: cells; format: functional, cell-based, Homo sapiens; details: Homo sapiens, THP-1;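 note: growth inhibition of THP-1 cells, read out via a cell viability assay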
Description: SANGER: Inhibition of human THP-1 cell growth in a cell viability assay.

NCI-H1793 = assay: cells; format: functional, cell-based; details: Homo sapiens;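 note: cell growth inhibition, read out by a cell viability assay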
Description: SANGER: Inhibition of human NCI-H1793 cell growth in a cell viability assay.

AN3-CA = assay: cells; format: functional, cell-based; details: Homo sapiens;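 note: growth inhibition of human AN3-CA cells measured by a cell viability assay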
Description: SANGER: Inhibition of human AN3-CA cell growth in a cell viability assay.

CAL-120 = assay: cells; format: functional, cell-based; details: Homo sapiens;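 note: cell growth inhibition, read out as cell viability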
Description: SANGER: Inhibition of human CAL-120 cell growth in a cell viability assay.

CAL-62 = assay: cells; format: functional, cell-based; details: Homo sapiens;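 note: growth inhibition of CAL-62 cells, read out with a cell viability assay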
Description: SANGER: Inhibition of human CAL-62 cell growth in a cell viability assay.

G-401 = assay: cells; format: functional, cell-based; details: Homo sapiens
Description: SANGER: Inhibition of human G-401 cell growth in a cell viability assay.

NCI-H630 = assay: cells; format: functional, cell-based; details: Homo sapiens;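 note: growth inhibition of NCI-H630 cells, read out with a cell viability assay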
Description: SANGER: Inhibition of human NCI-H630 cell growth in a cell viability assay.

CAL-54 = assay: cells; format: functional, cell-based; details: Homo sapiens;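 note: growth inhibition of CAL-54 cells, read out by a viability measurement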
Description: SANGER: Inhibition of human CAL-54 cell growth in a cell viability assay.

SiHa = assay: cells; format: functional, cell-based; details: Homo sapiens;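 note: Viability-based readout of growth inhibition in SiHa cells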
Description: SANGER: Inhibition of human SiHa cell growth in a cell viability assay.

SNU-387 = assay: cells; format: functional, cell-based; details: Homo sapiens
Description: SANGER: Inhibition of human SNU-387 cell growth in a cell viability assay.

OVCAR-5 = assay: cells; format: functional, cell-based; details: Homo sapiens;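 note: growth inhibition of human OVCAR-5 cells, read out with a cell viability assay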
Description: SANGER: Inhibition of human OVCAR-5 cell growth in a cell viability assay.

HCC1806 = assay: cells; format: functional, cell-based; details: Homo sapiens;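 note: growth inhibition of the cancer cell line, determined with a cell viability assay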
Description: SANGER: Inhibition of human HCC1806 cell growth in a cell viability assay.

LB373-MEL-D = assay: cells; format: functional, cell-based, Homo sapiens; details: Homo sapiens, LB373-MEL-D;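 note: growth inhibition of the cell line, read out in a cell viability assay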
Description: SANGER: Inhibition of human LB373-MEL-D cell growth in a cell viability assay.

DoTc2-4510 = assay: cells; format: functional, cell-based; details: Homo sapiens
ChaGo-K-1 = assay: cells; format: functional, cell-based; details: Homo sapiens;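 note: growth inhibition of ChaGo-K-1 cells, read out with a cell viability assay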
Description: SANGER: Inhibition of human ChaGo-K-1 cell growth in a cell viability assay.

SW1463 = assay: cells; format: functional, cell-based; details: Homo sapiens;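 note: growth inhibition of SW1463 cells, determined with a cell viability assay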
Description: SANGER: Inhibition of human SW1463 cell growth in a cell viability assay.

IM-9 = assay: SANGER: Inhibition of human IM-9 cell growth in a cell viability assay.; format: functional, cell-based; details: Homo sapiens, IM-9
NCI-H810 = assay: cells; format: functional, cell-based; details: Homo sapiens;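 note: IC50 reflects inhibition of cancer cell line growth, read out with a cell viability assay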
Description: SANGER: Inhibition of human NCI-H810 cell growth in a cell viability assay.

S-117 = assay: cells; format: functional, cell-based; details: Homo sapiens
Description: SANGER: Inhibition of human S-117 cell growth in a cell viability assay.

D-542MG = assay: cells; format: functional, cell-based; details: Homo sapiens
Description: SANGER: Inhibition of human D-542MG cell growth in a cell viability assay.

RO82-W-1 = assay: cells; format: functional, cell-based; details: Homo sapiens;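 note: growth inhibition of human RO82-W-1 cells, measured with a cell viability assay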
Description: SANGER: Inhibition of human RO82-W-1 cell growth in a cell viability assay.

OAW-42 = assay: cells; format: functional, cell-based; details: Homo sapiens;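 note: growth inhibition of OAW-42 cells, read out with a cell viability assay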
Description: SANGER: Inhibition of human OAW-42 cell growth in a cell viability assay.

MFH-ino = assay: cells; format: functional, cell-based, Homo sapiens; details: Homo sapiens, MFH-ino;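 note: growth inhibition of human MFH-ino cells, read out by a cell viability assay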
Description: SANGER: Inhibition of human MFH-ino cell growth in a cell viability assay.

NCI-H2170 = assay: cells; format: functional, cell-based; details: Homo sapiens;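 note: cell viability assay measuring growth inhibition of human NCI-H2170 cancer cells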
Description: SANGER: Inhibition of human NCI-H2170 cell growth in a cell viability assay.

COLO-680N = assay: cells; format: functional, cell-based; details: Homo sapiens;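 note: cell viability assay used to measure inhibition of COLO-680N cell growth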
Description: SANGER: Inhibition of human COLO-680N cell growth in a cell viability assay.

LU-165 = assay: cells; format: functional, cell-based, Homo sapiens; details: Homo sapiens, LU-165
Description: SANGER: Inhibition of human LU-165 cell growth in a cell viability assay.

NB12 = assay: cells; format: functional, cell-based; details: Homo sapiens;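 note: growth inhibition of human NB12 cells, read out by a cell viability assay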
Description: SANGER: Inhibition of human NB12 cell growth in a cell viability assay.

CAL-148 = assay: cells; format: functional, cell-based, Homo sapiens; details: Homo sapiens, CAL-148
Description: SANGER: Inhibition of human CAL-148 cell growth in a cell viability assay.

RT-112 = assay: cells; format: functional, cell-based; details: Homo sapiens
Description: SANGER: Inhibition of human RT-112 cell growth in a cell viability assay.

HCC1937 = assay: cells; format: functional, cell-based; details: Homo sapiens;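 note: growth inhibition measured with a cell viability read-out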
Description: SANGER: Inhibition of human HCC1937 cell growth in a cell viability assay.

NCI-H524 = assay: cells; format: functional, cell-based, Homo sapiens; details: Homo sapiens, NCI-H524;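 note: growth inhibition of human NCI-H524 cells, read out through a cell viability assay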
Description: SANGER: Inhibition of human NCI-H524 cell growth in a cell viability assay.

MDA-MB-157 = assay: cells; format: functional, cell-based; details: Homo sapiens
Description: SANGER: Inhibition of human MDA-MB-157 cell growth in a cell viability assay.

SCLC-21H = assay: cells; format: functional, cell-based, Homo sapiens; details: Homo sapiens, SCLC-21H;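 note: growth inhibition of cultured human SCLC-21H cells, read out with a cell viability assay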
Description: SANGER: Inhibition of human SCLC-21H cell growth in a cell viability assay.

MKN-45 = assay: cells; format: functional, cell-based; details: Homo sapiens;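 note: growth inhibition of human MKN-45 cells, measured with a cell viability assay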
Description: SANGER: Inhibition of human MKN45 cell growth in a cell viability assay.

Hs-578T = assay: cells; format: functional, cell-based; details: Homo sapiens
Description: SANGER: Inhibition of human Hs-578-T cell growth in a cell viability assay.

MC-CAR = assay: cells; format: functional, cell-based, Homo sapiens; details: Homo sapiens, MC-CAR;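 note: growth inhibition of the human MC-CAR cell line, read out by a cell viability assay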
Description: SANGER: Inhibition of human MC-CAR cell growth in a cell viability assay.

M059J = assay: cells; format: functional, cell-based; details: Homo sapiens;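 note: growth inhibition of M059J cells, read out with a cell viability assay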
Description: SANGER: Inhibition of human M059J cell growth in a cell viability assay.

NCI-H1993 = assay: cells; format: functional, cell-based; details: Homo sapiens;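 note: growth inhibition of the cancer cell line, assessed with a cell viability assay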
Description: SANGER: Inhibition of human NCI-H1993 cell growth in a cell viability assay.

Cc1ccc(C(=O)Nc2ccc(CN3CCN(C)CC3)c(C(F)(F)F)c2)cc1C#Cc1cnc2cccnn12 [PONATINIB]
IC50 (NCI-H2052): 315 nM | IC50 (EHEB): > 512 nM | IC50 (HCC1395): > 512 nM | IC50 (WSU-NHL): > 512 nM | IC50 (MKN-1): > 512 nM | IC50 (IGROV-1): > 512 nM | IC50 (NY): 193 nM | IC50 (MDA-MB-175-VII): > 512 nM | IC50 (IMR-5): > 512 nM | IC50 (U2OS): > 512 nM | IC50 (ASPC1): > 512 nM | IC50 (BFTC-909): > 512 nM | IC50 (NCI-H1651): > 512 nM | IC50 (NCI-H650): > 512 nM | IC50 (PANC-03-27): > 512 nM | IC50 (RPMI-6666): > 512 nM | IC50 (DMS-153): > 512 nM | IC50 (CP50-MEL-B): > 512 nM | IC50 (SW1088): 444 nM | IC50 (THP-1): > 512 nM | IC50 (NCI-H1793): > 512 nM | IC50 (AN3-CA): 18.7 nM | IC50 (CAL-120): 476 nM | IC50 (CAL-62): > 512 nM | IC50 (G-401): > 512 nM | IC50 (NCI-H630): > 512 nM | IC50 (CAL-54): > 512 nM | IC50 (SiHa): > 512 nM | IC50 (SNU-387): > 512 nM | IC50 (OVCAR-5): > 512 nM | IC50 (HCC1806): > 512 nM | IC50 (LB373-MEL-D): > 512 nM | IC50 (DoTc2-4510): > 512 nM | IC50 (ChaGo-K-1): > 512 nM | IC50 (SW1463): > 512 nM | IC50 (IM-9): > 512 nM | IC50 (NCI-H810): > 512 nM | IC50 (S-117): > 512 nM | IC50 (D-542MG): > 512 nM | IC50 (RO82-W-1): > 512 nM | IC50 (OAW-42): > 512 nM | IC50 (MFH-ino): > 512 nM | IC50 (NCI-H2170): > 512 nM | IC50 (COLO-680N): > 512 nM | IC50 (LU-165): > 512 nM | IC50 (NB12): > 512 nM | IC50 (CAL-148): > 512 nM | IC50 (RT-112): 238 nM | IC50 (HCC1937): > 512 nM | IC50 (NCI-H524): > 512 nM | IC50 (MDA-MB-157): > 512 nM | IC50 (SCLC-21H): > 512 nM | IC50 (MKN-45): > 512 nM | IC50 (Hs-578T): > 512 nM | IC50 (MC-CAR): > 512 nM | IC50 (M059J): > 512 nM | IC50 (NCI-H1993): > 512 nM

NC(=O)c1ccc(N(C(N)=O)c2c(F)cccc2F)nc1-c1ccc(F)cc1F [VX-702]
IC50 (NCI-H2052): > 2000 nM | IC50 (HCC1395): > 2000 nM | IC50 (MKN-1): > 2000 nM | IC50 (IGROV-1): > 2000 nM | IC50 (NY): > 2000 nM | IC50 (MDA-MB-175-VII): > 2000 nM | IC50 (U2OS): > 2000 nM | IC50 (ASPC1): > 2000 nM | IC50 (BFTC-909): > 2000 nM | IC50 (NCI-H1651): > 2000 nM | IC50 (NCI-H650): > 2000 nM | IC50 (PANC-03-27): > 2000 nM | IC50 (CP50-MEL-B): > 2000 nM | IC50 (SW1088): > 2000 nM | IC50 (NCI-H1793): > 2000 nM | IC50 (AN3-CA): > 2000 nM | IC50 (CAL-120): > 2000 nM | IC50 (CAL-62): > 2000 nM | IC50 (G-401): > 2000 nM | IC50 (NCI-H630): > 2000 nM | IC50 (CAL-54): > 2000 nM | IC50 (SiHa): > 2000 nM | IC50 (SNU-387): > 2000 nM | IC50 (OVCAR-5): > 2000 nM | IC50 (HCC1806): > 2000 nM | IC50 (LB373-MEL-D): > 2000 nM | IC50 (DoTc2-4510): > 2000 nM | IC50 (ChaGo-K-1): > 2000 nM | IC50 (SW1463): > 2000 nM | IC50 (NCI-H810): > 2000 nM | IC50 (S-117): > 2000 nM | IC50 (D-542MG): > 2000 nM | IC50 (RO82-W-1): > 2000 nM | IC50 (OAW-42): > 2000 nM | IC50 (MFH-ino): > 2000 nM | IC50 (NCI-H2170): > 2000 nM | IC50 (COLO-680N): > 2000 nM | IC50 (NB12): > 2000 nM | IC50 (RT-112): > 2000 nM | IC50 (HCC1937): > 2000 nM | IC50 (MDA-MB-157): > 2000 nM | IC50 (MKN-45): > 2000 nM | IC50 (Hs-578T): > 2000 nM | IC50 (M059J): > 2000 nM | IC50 (NCI-H1993): > 2000 nM
